Data: US20240238361A1, “METHODS OF TREATING FIBROSIS AND HYPOXIA-ASSOCIATED DAMAGE TO PERIPHERAL NERVES” (Temple Therapeutics BV, priority 2021, published 2024)
Entries after “also recorded” stand apart in the source; their conditions may differ. Where a SMILES comes first, the peptide text is derived from it.

Tests used:
[1] = test system: hypoxic primary rat fibroblasts; assay: Western blotting of whole cell lysates for HIF1-α signaling and pro-fibrotic proteins; assay type: cell-based
Experimental: In order to mimic the hypoxic micro-environment, primary rat fibroblasts were exposed to hypoxia. Cells were exposed to 2 separate conditions—continuous and episodic hypoxia. For continuous hypoxia, cells were incubated in a hypoxic chamber (2% 02) for 48 h and treated with or without L-alanyl-L-glutamine and no restoration to normoxia as shown in FIG. 1C. Cells were collected and processed for experiments subsequently. For episodic hypoxia, cells were incubated in a hypoxic chamber (2% 02) for 2 h followed by restoration to normoxia for 48 h at which time cells were treated with or without L-alanyl-L-glutamine, as shown by FIG. 1C. Cells were collected after 48 h and processed for experiments subsequently. Protein samples were prepared by resuspending cells growing in 6-well plates in RIPA lysis and extraction buffer (Thermo) containing protease and phosphatase inhibitors (Roche). Protein concentrations were quantified using protein assay dye reagent (Bio-Rad). Samples were mixed with 4× LDS Sample buffer (Thermo) and denatured by boiling at 95° C. for 6 minutes. Following protein concentration estimations, equal protein samples containing 25 μg total protein were loaded and resolved in 4-15% Mini protean TGX gels (Bio-Rad). Fractionated proteins were transferred to 0.2 μm nitrocellulose membranes using Trans-Blot® Turbo™ Transfer System (Bio-Rad). Membranes were blocked with 5% Non-Fat dry milk and incubated overnight with primary antibodies. The following primary antibodies along with their respective concentrations were used during overnight incubation. Anti-collagen I (1:500; ab34710) and anti-collagen IV (1:500; ab6586) were purchased from Abcam. Anti-heat shock protein 47 (HSP-47) (1:400; sc-13150) and anti-fibronectin (1:500; sc-8422) were ordered from Santa Cruz Biotechnology. Other antibodies including anti-SMAD 2/3 (1:500; 85865S), anti-GAPDH (1:5000; 97166S) and anti-HIF-1α (1:750; 14179S) were from Cell Signaling Technology. Horseradish peroxidase-conjugated secondary antibodies at a concentration of 1:5000 were used for immunoreactivity and detection of protein bands were does using Pierce™ ECL Plus Western Blotting Substrate (Thermo) and on the ChemiDoc Imaging Systems (Bio-Rad).

[2] = test system: hypoxic primary rat fibroblasts; assay: Immunofluorescence of HIF1-α signaling and pro-fibrotic proteins; assay type: cell-based
Experimental: (§1) In order to mimic the hypoxic micro-environment, primary rat fibroblasts were exposed to hypoxia. Cells were exposed to 2 separate conditions—continuous and episodic hypoxia. For continuous hypoxia, cells were incubated in a hypoxic chamber (2% 02) for 48 h and treated with or without L-alanyl-L-glutamine and no restoration to normoxia as shown in FIG. 1C. Cells were collected and processed for experiments subsequently.
For episodic hypoxia, cells were incubated in a hypoxic chamber (2% 02) for 2 h followed by restoration to normoxia for 48 h at which time cells were treated with or without L-alanyl-L-glutamine, as shown by FIG. 1C. Cells were collected after 48 h and processed for experiments subsequently.
For immunofluorescence microscopy, cells were grown on 4-well chamber slides (IBIDI) under appropriate hypoxic conditions with or without L-alanyl-L-glutamine treatment. Cells were washed with ice-cold PBS followed by fixation with 4% paraformaldehyde. Fixed cells were permeabilized with 0.5% Triton X-100 and incubated with blocking reagent (1% BSA in PBS) for 30 minutes, prior to overnight incubation with appropriate primary antibodies. After wash steps, cultures were labeled and incubated with secondary antibodies and 4′-6-didiamino-2-phenylindole, dihydrochloride (DAPI, Sigma) were used to stain the nuclei.
Fluorescence microscopy image analysis was performed using NIKON Ti2 inverted microscope equipped with Photometrics Prime 95B camera for fluorescence imaging. All images were digitally processed, all quantifications and further arrangement for presentation was done using NIS-Elements Advanced Research analysis software. For quantification analysis, pictures from random fields in independent wells were taken at 10× and 40× magnification objectives and the total protein expression for each marker was determined in reference to the total number of cells based on DAPI quantification.
For immunofluorescence, the primary antibodies along with their respective concentrations are listed below. Anti-collagen I (1:500; ab34710), anti-collagen IV (1:500; ab6586) and anti-α-SMA (1:500; ab124964) were purchased from Abcam. Anti-HSP-47 (1:250; sc-13150), anti-fibronectin (1:250; sc-8422), and anti-HIF-1α (1:500; sc-13515) were ordered from Santa Cruz Biotechnology. Anti-SMAD 2/3 (1:500; 85865S) was purchased from Cell Signaling Technology. In addition to this, the following secondary antibodies: Goat anti-mouse Alexa Fluor (AF) 488 (A11029), goat anti-mouse AF546 (A11030), goat anti-rabbit AF488 (A11034) and goat anti-rabbit AF546 (A11010) from Life Technologies. DAPI (D9564) from Sigma was used at a concentration of 1:1000.

[3] = test system: hypoxic primary rat fibroblasts; assay: Alamar Blue viability / proliferation assay under hypoxia; assay type: cell-based; conditions: for cell proliferation vs untreated controls: various concentrations
Experimental: In order to mimic the hypoxic micro-environment, primary rat fibroblasts were exposed to hypoxia. Cells were exposed to 2 separate conditions—continuous and episodic hypoxia. For continuous hypoxia, cells were incubated in a hypoxic chamber (2% 02) for 48 h and treated with or without L-alanyl-L-glutamine and no restoration to normoxia as shown in FIG. 1C. Cells were collected and processed for experiments subsequently. For episodic hypoxia, cells were incubated in a hypoxic chamber (2% 02) for 2 h followed by restoration to normoxia for 48 h at which time cells were treated with or without L-alanyl-L-glutamine, as shown by FIG. 1C. Cells were collected after 48 h and processed for experiments subsequently. Proliferation of primary fibroblasts were determined by alamar blue assay (Invitrogen). Briefly, cells were plated in a 96-well plate treated with or without L-alanyl-L-glutamine under aforementioned hypoxic conditions for 48 h. The interaction of alamar blue with the cells was analyzed for 4 h by measuring fluorescence readings at 540 nm and 585 nm respectively. Proliferation was also detected using flow cytometry based EdU assay using EdU-Click 488 (baseclick).

[4] = test system: hypoxic primary rat fibroblasts; assay: Phosphoproteomics (LC-MS/MS) and pathway analysis under chronic hypoxia; assay type: cell-based; conditions: vs untreated chronic hypoxic samples
Experimental: as §1
Following fibroblast isolation from sciatic nerves of rats, (8E10 primary fibroblasts) were lysed in 80 ul of 8M Urea, 0.1M ammonium bicarbonate, phosphatase inhibitors (Sigma P5726&P0044) by sonication (Bioruptor, 10 cycles, 30 seconds on/off, Diagenode, Belgium) and proteins were digested as described previously (PMID:27345528). Shortly, proteins were reduced with 5 mM TCEP for 60 min at 37° C. and alkylated with 10 mM chloroacetamide for 30 min at 37° C. After diluting samples with 100 mM ammonium bicarbonate buffer to a final urea concentration of 1.6M, proteins were digested by incubation with sequencing-grade modified trypsin (1/50, w/w; Promega, Madison, Wisconsin) for 12 h at 37° C. After acidification using 5% TFA, peptides were desalted using C18 reverse-phase spin columns (Macrospin, Harvard Apparatus) according to the manufacturer's instructions, dried under vacuum and stored at −20° C. until further use. […]

[5] = room temperature; cited from earlier work
[6] = continuous hypoxia 48 h, 1 mM, 10 mM and 100 mM, dose-dependent
[7] = continuous hypoxia 48 h, various concentrations
[8] = episodic hypoxia 2 h, then treatment 48 h

C[C@H](N)C(=O)N[C@@H](CCC(N)=O)C(=O)O [L-alanyl-L-glutamine] (H-Ala-Gln-OH)
HSP47 expression (western blot) ([1]; continuous hypoxia 48 h): reduces expression of HSP47 but we did not observe a significant downregulation
HIF1-α expression (western blot) ([1]; continuous hypoxia 48 h, 1 mM, 10 mM and 100 mM): significantly down regulated
Collagen-I expression (western blot) [1, 6]: significantly reduced
Collagen-IV expression (western blot) [1, 6]: significantly reduced
Fibronectin expression (western blot) [1, 6]: significantly reduced
SMAD 2/3 expression (western blot) ([1]; continuous hypoxia 48 h, 100 mM only): significantly downregulated
COL-IV expression (western blot) ([1]; episodic hypoxia, 1 mM): significant downregulation
HIF1-α signaling factors and pro-fibrosis mechanistic targets (western blot) ([1]; episodic hypoxia, across the various concentrations): not any significant downregulation
Collagen-I expression (immunofluorescence) [2, 7]: significantly reduced in a non-dose dependent manner
Collagen-IV expression (immunofluorescence) [2, 7]: dose-dependent downregulation
Fibronectin expression (immunofluorescence) [2, 7]: significantly reduced in a non-dose dependent manner
HIF1-α expression (immunofluorescence) [2, 7]: significant reduction; also recorded: dose-dependent downregulation
HSP47 expression (immunofluorescence) [2, 7]: dose-dependent downregulation
SMAD 2/3 expression (immunofluorescence) [2, 7]: significant reduction; also recorded: dose-dependent downregulation
Collagen-I expression (immunofluorescence) [2, 8]: significantly reduced at 1 mM L-alanyl-L-glutamine, but remained constant thereafter
Collagen-IV expression (immunofluorescence) [2, 8]: effectively reduces expression
Fibronectin expression (immunofluorescence) [2, 8]: effectively reduces expression
HIF1-α expression (immunofluorescence) [2, 8]: significant downregulation
HSP47 expression (immunofluorescence) [2, 8]: effectively reduces expression
SMAD 2/3 expression (immunofluorescence) [2, 8]: significant downregulation
viability and cell proliferation ([3]; Alamar Blue, 48 h, hypoxic, 1 mM, 10 mM and 100 mM): does not affect the viability and cell proliferation
cell proliferation vs untreated controls ([3]; continuous (48 h) hypoxia): no change in cell proliferation
cell proliferation vs untreated controls ([3]; episodic (2 h) hypoxia): no change in cell proliferation
pro-fibrotic factors Fndel, Fndc3b, Col1a1, Akt1s1 and Pxn (phosphoproteome) [4]: significantly downregulated

NC(=O)CC[C@H](N)C(=O)O [L-glutamine]
water solubility [5]: about 40 g/L
